Marks after values point to notes of the source that are not given here. Starred links: 1 amine or outer side, 2 acyl side, 3 side chain; linkers in the order of their positions; H or OH if unused. Non-standard residues stand in square brackets, D forms with d. Residues, ends and D or L forms follow the SMILES beside them. Groups on a side chain read outwards from the residue. *: point of attachment. C20 diacid = O=C(O)CCCCCCCCCCCCCCCCCCC(=O)*; γGlu = O=C(O)[C@H](CCC(=O)[*:2])N[*:1]; NMeI = CC[C@H](C)[C@H](NC)C(=O)O; Nle = CCCC[C@H](N)C(=O)O; AEEA = NCCOCCOCC(=O)O; Aib = CC(C)(N)C(=O)O
How the values were obtained:
[1] = Body mass and body fat content in mouse model of diet-induced obesity (DIO); assay type: in vivo; settings: DIO mice; for relative body weight: 28 days, compared to vehicle; for Blood HbA1c / M. Gastrocnemius / M. Soleus / Body weight at termination / Fat mass change from baseline / Lean mass change from baseline / Relative body weight change at termination: Table 17 study; for Body weight at termination / Fat mass change from baseline / Lean mass change from baseline / Relative body weight change at termination: ± SEM
Protocol: SEQ ID NO: 3, SEQ ID NO: 6, SEQ ID NO: 238, SEQ ID NO: 16 and SEQ ID NO: 215 were assessed for their ability to reduce body mass and body fat content in a mouse model of diet-induced obesity (DIO).
Male C57BL/6JRj mice were obtained from JanVier (JanVier Labs, France) at 5 weeks of age. The animals were group-housed during obesity induction and then single housed 2 weeks prior to study start. They were housed under a 12/12 h dark-light cycle, light off at 3 PM. Room temperature was controlled to 22°C ± 1°C, with 60 % ± 20% humidity. For 22-23 weeks prior to treatment start and throughout the study, the animals had ad libitum access to high-fat diet (60% kcal fat, D12492, Research Diets) and tap water.
The animals were randomized according to lean mass (EchoMRI) and body weight. Animals were dosed subcutaneously […] for 30-32 days. In study 1, the animals were dosed with vehicle or SEQ ID NO: 3 (10, 30, 60 or 100 nmol/kg). In study 2, the animals were dosed with vehicle or SEQ ID NO: 6 (10 or 30 nmol/kg), SEQ ID NO: 238 (10 or 30 nmol/kg), SEQ ID NO: 16 (10 or 30 nmol/kg), SEQ ID NO: 215 (10 or 30 nmol/kg) or SEQ ID NO: 3 (30 nmol/kg).
Body weight and food intake were recorded daily until day 28 and body composition evaluated on day 26 using EchoMRI. At termination, blood for HbA1c analyses were collected and M. gastrocnemius and M. soleus were weighed.
Statistical significance was evaluated using One-way analysis of variance with Dunnett's multiple comparison test. P < 0.05 was considered statistically significant.

[2] = molecular target: T1, hCRHR2b (Homo sapiens, UniProt Q13324); assay: cAMP potency, transiently transfected CHO-K1 cells, hCRHR2b; assay type: cell-based; settings: transiently transfected CHO-K1, average n=3; read-out: Transient cell system EC50 (nM) hCRHR 2b
T1 construct: DYK (FLAG); host or cells: CHO-K1, transiently transfected
T1 sequence (Q13324 1-438 isoform Q13324-2): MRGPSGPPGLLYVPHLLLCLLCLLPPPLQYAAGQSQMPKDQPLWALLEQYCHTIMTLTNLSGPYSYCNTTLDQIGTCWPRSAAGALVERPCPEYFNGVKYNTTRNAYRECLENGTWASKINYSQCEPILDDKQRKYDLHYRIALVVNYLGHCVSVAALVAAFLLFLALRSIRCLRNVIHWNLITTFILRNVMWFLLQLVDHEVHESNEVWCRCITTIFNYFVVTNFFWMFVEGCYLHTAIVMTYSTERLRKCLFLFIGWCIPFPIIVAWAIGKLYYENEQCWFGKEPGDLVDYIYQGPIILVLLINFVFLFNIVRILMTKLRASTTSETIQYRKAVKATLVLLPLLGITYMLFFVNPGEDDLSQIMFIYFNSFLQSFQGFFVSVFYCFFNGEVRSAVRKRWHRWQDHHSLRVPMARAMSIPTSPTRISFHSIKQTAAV

[3] = Size exclusion chromatography for high molecular weight products (HMWP); assay type: physicochemical; settings: for HMWP formation (SEC analysis) T14-T0 (%): 14 days; for HMWP formation (SEC analysis) T28-T0 (%): 28 days
Protocol: Dissolved samples were incubated for at least 2 h at room temperature on a rocking table. The main peak purity at time zero (T0) was determined using reversed phase chromatography. The samples were incubated at 40°C for 14 days (T14) and 28 days (T28). The samples were analyzed with reversed phase chromatography and size exclusion chromatography.
Size exclusion chromatography (SEC) was used as an analysis for the formation of high molecular weight products (HMWP, covalent dimers, trimers etc.,). SEC analyses was performed on Thermo Dionex Ultimate UHPLC system with UV detection at 215 nm) equipped with a SEC column (Waters BEH 125Å, 1.7 µm, 300mm x 4.6). Analysis was performed by isocratic elution using 60% buffer B (0.1% TFA in 5:95 H2O: acetonitrile) in buffer A (0.1% TFA in 95:5 H2O: acetonitrile) at a column temperature of 60° C over 20 min. Flowrate was 0.3 mL/min.
Chromatograms were integrated as HMWP (all peaks eluting before the main peak), main peak (assuming this is monomeric peptide) and if relevant LMWP (low molecular weight products, all peaks eluting after main peak). The amount of HMWP was reported as area relative to total area in percent.

[4] = system: pCRHR2; assay: cAMP potency, transiently transfected CHO-K1 cells, pCRHR2; assay type: cell-based, pig; settings: transiently transfected CHO-K1, average n=3; read-out: Transient cell system EC50 (nM) pCR HR2
Protocol: (§1) Selected peptides were tested for potency on different species (mouse, rat, porcine) using transiently transfected CHO-K1 cells using the general procedure.

[5] = molecular target: T2, rCRHR2 (Rattus norvegicus, UniProt P47866); assay: cAMP potency, transiently transfected CHO-K1 cells, rCRHR2; assay type: cell-based; settings: transiently transfected CHO-K1, average n=3; read-out: Transient cell system EC50 (nM) rCRHR 2
T2 construct: DYK (FLAG); host or cells: CHO-K1, transiently transfected
T2 sequence (P47866 whole entry): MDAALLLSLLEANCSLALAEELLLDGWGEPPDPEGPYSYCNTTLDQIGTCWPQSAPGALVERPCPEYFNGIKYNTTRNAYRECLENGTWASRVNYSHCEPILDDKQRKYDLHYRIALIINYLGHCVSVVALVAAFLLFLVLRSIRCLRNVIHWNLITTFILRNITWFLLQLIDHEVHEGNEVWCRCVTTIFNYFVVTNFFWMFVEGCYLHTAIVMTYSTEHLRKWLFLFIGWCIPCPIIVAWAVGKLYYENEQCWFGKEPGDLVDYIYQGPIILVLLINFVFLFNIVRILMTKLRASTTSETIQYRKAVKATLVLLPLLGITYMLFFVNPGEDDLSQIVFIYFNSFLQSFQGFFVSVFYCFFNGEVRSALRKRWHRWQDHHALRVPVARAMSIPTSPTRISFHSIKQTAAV
Protocol: as §1

[6] = molecular target: T3, hCRHR2a (Homo sapiens, UniProt Q13324); assay: cAMP potency, transiently transfected CHO-K1 cells, hCRHR2a; assay type: cell-based; settings: transiently transfected CHO-K1, average n=3; read-out: Transient cell system EC50 (nM) hCRHR 2a
T3 construct: DYK (FLAG); host or cells: CHO-K1, transiently transfected
T3 sequence (Q13324 1-411): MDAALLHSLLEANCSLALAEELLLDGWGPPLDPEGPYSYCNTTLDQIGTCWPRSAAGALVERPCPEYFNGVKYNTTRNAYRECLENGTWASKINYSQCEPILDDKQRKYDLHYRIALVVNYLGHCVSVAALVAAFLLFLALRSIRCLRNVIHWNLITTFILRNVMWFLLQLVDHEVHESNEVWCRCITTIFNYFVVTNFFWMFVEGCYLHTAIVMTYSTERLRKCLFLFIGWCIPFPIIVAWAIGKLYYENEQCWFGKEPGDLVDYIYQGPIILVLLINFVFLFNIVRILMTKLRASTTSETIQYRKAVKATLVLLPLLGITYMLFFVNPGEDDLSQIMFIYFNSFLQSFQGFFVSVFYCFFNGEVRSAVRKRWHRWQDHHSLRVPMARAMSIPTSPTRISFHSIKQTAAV

CCCC[C@H](NC(=O)[C@@H](NC(=O)[C@H](CCC(=O)O)NC(=O)C(C)(C)NC(=O)[C@H](CC(N)=O)NC(=O)[C@@H](NC(=O)[C@H](CCCCNC(=O)COCCOCCNC(=O)COCCOCCNC(=O)CC[C@H](NC(=O)CC[C@H](NC(=O)CCCCCCCCCCCCCCCCCCC(=O)O)C(=O)O)C(=O)O)NC(=O)[C@H](C)NC(=O)[C@H](CCC(N)=O)NC(=O)[C@H](CCC(=O)O)NC(=O)[C@H](CCCNC(=N)N)NC(=O)[C@H](C)NC(=O)[C@H](C)NC(=O)[C@H](CCCNC(=N)N)NC(=O)[C@H](C)NC(=O)[C@H](CCCNC(=N)N)NC(=O)[C@H](C)NC(=O)[C@H](CCC(N)=O)NC(=O)[C@H](CO)NC(=O)[C@H](CC(C)C)NC(=O)[C@H](CC(C)C)NC(=O)[C@@H](NC(=O)[C@H](CCC(N)=O)NC(=O)[C@H](CC(C)C)NC(=O)[C@H](CC(C)C)NC(=O)CNC(=O)[C@@H](NC(=O)[C@@H]1CCCN1C(=O)[C@@H](NC(=O)[C@H](CC(=O)O)NC(=O)[C@H](CC(C)C)NC(=O)[C@H](CO)NC(=O)[C@H](CC(C)C)NC(=O)[C@@H](NC(=O)[C@@H](NC)[C@@H](C)CC)C(C)C)C(C)C)[C@@H](C)CC)[C@@H](C)CC)[C@@H](C)O)[C@@H](C)CC)C(=O)N[C@@H](C)C(=O)N[C@@H](CCC(=O)O)C(=O)N[C@H](C(N)=O)C(C)C [SEQ ID NO: 215] (H-[NMeI]VLSLDVPIGLLQILLSQARARAAREQAK([AEEA-AEEA-γGlu-γGlu-C20 diacid])TN[Aib]EI[Nle]AEV-NH2)
body weight loss compared to SEQ ID NO: 16 ([1]; 10 nmol/kg, Fig. 5): relative higher body weight loss | relative body weight [1]: prolonged dose-dependent reduction | relative body weight ([1]; listed as 215): reduce body weight | Blood HbA1c ([1]; 10 nmol/kg): 4.3 ± 0.1 % | M. Gastrocnemius ([1]; 10 nmol/kg): 0.19 ± 0.002* ** g | M. Soleus ([1]; 10 nmol/kg): 0.012 ± 0.0005 g | Body weight at termination ([1]; 10 nmol/kg): 40.5 ± 1.2 g | Fat mass change from baseline ([1]; 10 nmol/kg): -8.7 ± 0.5 g | Lean mass change from baseline ([1]; 10 nmol/kg): 0.1 ± 0.5 g | Relative body weight change at termination ([1]; 10 nmol/kg): 85.5 ± 1.3 % | Blood HbA1c ([1]; 30 nmol/kg): 4.4 ± 0.03 % | M. Gastrocnemius ([1]; 30 nmol/kg): 0.18 ± 0.003 g | M. Soleus ([1]; 30 nmol/kg): 0.012 ± 0.0005 g | Body weight at termination ([1]; 30 nmol/kg): 38.9 ± 1.1 g | Fat mass change from baseline ([1]; 30 nmol/kg): -9.9 ± 0.7 g | Lean mass change from baseline ([1]; 30 nmol/kg): -0.5 ± 0.3 g | Relative body weight change at termination ([1]; 30 nmol/kg): 81.8 ± 1.9 % | EC50 [2]: 0.016 nM | HMWP formation (SEC analysis) T14-T0 (%) ([3]; pH 7.0, 40°C): -0.3% | HMWP formation (SEC analysis) T28-T0 (%) ([3]; pH 7.0, 40°C): -0.3% | HMWP formation (SEC analysis) T14-T0 (%) ([3]; pH 7.5, 40°C): 0.1% | HMWP formation (SEC analysis) T28-T0 (%) ([3]; pH 7.5, 40°C): 0.3% | HMWP formation (SEC analysis) T14-T0 (%) ([3]; pH 8.0, 40°C): 0.0% | HMWP formation (SEC analysis) T28-T0 (%) ([3]; pH 8.0, 40°C): -0.1% | EC50 [4]: 0.017 nM | EC50 [5]: 0.072 nM | EC50 [6]: 0.013 nM

Source: EP4810052A2, “HCRHR2 SELECTIVE POLYPEPTIDES” (Gubra A/S, priority 2023, dated 2026)
